# Data from patent US8557804B2, “Nicotinic receptor agonists for the treatment of inflammatory diseases” (priority 2002, dated 2013).
# What was measured:
# [1] = test system: collagen 1A mRNA expression by normal human lung fibroblasts; test: Collagen A1 gene expression by RT-PCR in primary normal lung fibroblasts; assay type: cell-based; conditions: primary normal fibroblasts, RT-PCR
# Method: Asthma is characterized by airway structural changes, including sub-epithelial collagen deposition, that may be a cause for the chronicity of the disease. An imbalance between collagen synthesis and its degradation by fibroblasts may be involved in this process (56). In preliminary experiments, we investigated the effects of nicotinic agonists on collagen A1 synthesis produced by primary normal fibroblasts. Collagen A1 gene expression was evaluated by RT-PCR.
# The results are expressed percentage gene expression in agonists treated cells compared to non-treated cells.
# [2] = test system: TNF-α mRNA expression in AMJ2-C11 cells; test: TNF-α mRNA expression by RT-PCR in AMJ2-C11 cells; assay type: cell-based, mouse; conditions: SR-stimulated 24 h, 40 and 80 μM
# Method: The effect of nicotine or DMPP treatment on AMJ2-C11 cells was tested on TNF-α, IL-10 mRNA expression by RT-PCR. These cytokines are involved in the development of pulmonary inflammatory diseases such as HP, asthma and sarcoidosis (52-55). […] Reference is made to FIG. 3 where results are expressed as a % of expression, 100% being attributed to the LPS alone group. The intensity of the band was obtained by dividing the intensity of the TNF-α band by that of β-actin. […] Reference is made to FIG. 4 where results are expressed as described in FIG. 5.
# IL-4 mRNA expression = IL-4 mRNA expression induced by a 24 h LPS stimulation; assay type: cell-based; conditions: LPS stimulation 24 h, 40 to 160 μM
# Method: The effect of agonist treatment on mRNA expression of IL-4, a cytokine that is well known to be involved in the development of asthma, was also tested (53). […] Cells were treated with different doses (40 to 160 μM for both nicotine and DMPP).
# IL-5 = test: BAL IL-5 levels in the ovalbumin mouse asthma model; assay type: in vivo, Balb/c mice; conditions: 0.5 mg/kg treated-group
# Method: Groups of Balb/c mice were sensitized by intra-peritoneal injection of 20 μg OVA protein (chicken egg albumin; Sigma-Aldrich) emulsified in 2 mg aluminum hydroxide in PBS. After 4 weeks, challenge doses of 1.5%/50 μl OVA were administered intranasally. The challenge was performed daily for 3 consecutive days and then the mice assessed for allergic inflammation of the lungs 24 h after the last aerosol exposure. Groups of mice were treated with various concentrations of DMPP during the challenge period. Broncho-alveolar lavage (BAL) was performed and the fluid centrifuged at 400 g to separate cells from liquid.
# The supernatants were used to determine lung IL-5 levels. The total, number of BAL cells and differential cell counts were evaluated.
# TNF = TNF levels in BAL fluid of SR-instilled mice; assay type: in vivo; conditions: DMPP-treated mice, SR instillation
# Source text: The Intranasal instillation of Saccharopolyspora rectivirgula (SR) antigens, the causative agent for farmer's lung, to mice, induces a prominent inflammatory response in the lung. Neutrophils are the first inflammatory cells recruited at the site of inflammation.
structure (smiles),measurement,setting,value
"C[N+]1(C)CCN(c2ccccc2)CC1 [DMPP, Dimethylphenylpiperazinium]",collagen A1 gene expression,[1],inhibits collagen A1 gene expression in a dose-dependent manner
same,reduction of TNF-α mRNA expression,[2],up to 60%
same,IL-4 mRNA expression,IL-4 mRNA expression,completely blocked
same,IL-5 levels in BAL,IL-5,significant inhibitory effect
same,BALF TNF levels,TNF,decreased significantly
